pIC50: −log10 of the molar value.
Biological target: T1, Full length human recombinant HDAC6 protein (Homo sapiens, UniProt Q9UBN7)
T1 construct: made in house
T1 sequence (Q9UBN7 1-1215): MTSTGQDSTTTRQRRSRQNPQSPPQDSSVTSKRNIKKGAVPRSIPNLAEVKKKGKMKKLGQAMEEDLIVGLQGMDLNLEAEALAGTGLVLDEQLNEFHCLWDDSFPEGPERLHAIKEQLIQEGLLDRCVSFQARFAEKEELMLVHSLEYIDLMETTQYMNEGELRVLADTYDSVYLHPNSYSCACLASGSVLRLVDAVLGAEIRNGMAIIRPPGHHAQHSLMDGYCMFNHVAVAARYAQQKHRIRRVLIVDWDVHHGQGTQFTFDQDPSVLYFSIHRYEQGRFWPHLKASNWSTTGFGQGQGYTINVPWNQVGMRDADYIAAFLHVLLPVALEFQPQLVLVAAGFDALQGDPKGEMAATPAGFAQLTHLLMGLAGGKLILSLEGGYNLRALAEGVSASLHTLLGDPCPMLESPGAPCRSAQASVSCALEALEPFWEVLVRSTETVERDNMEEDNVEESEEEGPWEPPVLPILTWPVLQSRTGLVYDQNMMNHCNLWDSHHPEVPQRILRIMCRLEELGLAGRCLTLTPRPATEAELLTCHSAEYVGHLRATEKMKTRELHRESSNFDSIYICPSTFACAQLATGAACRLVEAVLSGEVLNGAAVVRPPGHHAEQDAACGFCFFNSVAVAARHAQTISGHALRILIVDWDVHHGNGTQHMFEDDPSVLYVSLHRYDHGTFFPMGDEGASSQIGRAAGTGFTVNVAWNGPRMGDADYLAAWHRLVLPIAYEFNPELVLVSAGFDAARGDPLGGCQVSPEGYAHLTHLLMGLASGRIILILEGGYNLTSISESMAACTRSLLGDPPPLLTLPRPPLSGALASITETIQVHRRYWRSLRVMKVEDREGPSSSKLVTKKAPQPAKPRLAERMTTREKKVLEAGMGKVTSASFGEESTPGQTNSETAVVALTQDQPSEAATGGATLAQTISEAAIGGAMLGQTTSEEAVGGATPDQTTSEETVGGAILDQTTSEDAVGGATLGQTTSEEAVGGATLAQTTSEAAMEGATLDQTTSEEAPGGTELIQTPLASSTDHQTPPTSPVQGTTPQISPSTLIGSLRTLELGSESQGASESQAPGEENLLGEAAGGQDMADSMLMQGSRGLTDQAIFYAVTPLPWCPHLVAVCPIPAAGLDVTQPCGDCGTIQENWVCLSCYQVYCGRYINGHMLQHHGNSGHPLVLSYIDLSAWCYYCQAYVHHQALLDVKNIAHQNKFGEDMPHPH
Assay: In vitro histone deacetylase assay: enzymatic HDAC6 electrophoretic mobility shift assay
Type: biochemical
Settings: peptide substrate RHKK(Ac)-NH2 2 μM, enzyme 1 nM, 25° C., 12 concentrations; read-out: HDAC6 activity range (IC50)
Description: The enzymatic HDAC6 assay was performed using electrophoretic mobility shift assay. Full length human recombinant HDAC6 protein was expressed in baculoviral system and purified by affinity chromatography. The enzymatic reactions were assembled in 384 well plates in a total volume of 25 μL in a reaction buffer composing: 100 mM HEPES, pH 7.5, 25 mM KCl, 0.1% bovine serum albumin, 0.01% Triton X-100, 1% DMSO (from compounds) 2 μM of the fluorescently labeled peptide substrate and enzyme. The enzyme was added at a final concentration of 1 nM. The peptide substrate RHKK(Ac)-NH2 was used. The compounds were tested at 12 concentrations spaced by 3× dilution intervals. Negative control samples (0%-inhibition in the absence of inhibitor) and positive control samples (100%-inhibition) were assembled in replicates of four in each assay plate. The reactions were incubated at 25° C. and quenched by the addition of 45 μL of termination buffer (100 mM HEPES, pH 7.5, 0.01% Triton X-100, 0.05% SDS).
The terminated assay plates were analyzed on LabChip® 3000 microfluidic electrophoresis instrument (Perkin Elmer/Caliper Life Sciences). The fluorescence intensity of the electrophoretically separated de-acetylated product and substrate peptide was measured. Activity in each sample was determined as the product to sum ratio (PSR): P/(S+P), where P is the peak height of the product peptide and S is the peak height of the substrate peptide. Percent inhibition (Pinh) is determined using the following equation:
Pinh=(PSR0%−PSRinh)/(PSR0%−PSR100%)*100, where PSRinh is the product sum ratio in the presence of inhibitor, PSR0% is the average product sum ration in the absence of inhibitor and PSR100% is the average product sum ratio in 100%-inhibition control samples. The IC50 values of inhibitors were determined by fitting the %-inhibition curves with 4 parameter dose-response model using XLfit 4 software.
As set forth in Table-7, below, IC50 values are defined as follows: IC50≤0.01 μM (+++); IC50>0.01 μM and ≤0.05 μM (++); IC50>0.05 μM (+).

Row | Structure (SMILES) | pIC50
1 | O=C(NO)c1ccc2c(c1)C[C@]1(CCN(c3ccc(F)cc3)C1=O)C2 [Compound I-16, (S)-1′-(4-fluorophenyl)-N-hydroxy-2′-oxo-1,3-dihydrospiro[indene-2,3′-pyrrolidine]-5-carboxamide] | 7.30 to 8.00
2 | CN1CC[C@@]2(Cc3ccc(C(=O)NO)cc3C2)C1 [Compound I-25, (S)—N-hydroxy-1′-methyl-1,3-dihydrospiro[indene-2,3′-pyrrolidine]-5-carboxamide] | < 7.30
3 | O=C(NO)c1ccc2c(c1)C[C@@]1(CCCN(c3ccccc3)C1=O)C2 [Compound I-36, (R)—N-hydroxy-2′-oxo-1′-phenyl-1,3-dihydrospiro[indene-2,3′-piperidine]-5-carboxamide] | ≥ 8.00
4 | CCN1CC[C@@]2(Cc3ccc(C(=O)NO)cc3C2)C1=O [Compound I-6, (S)-1′-ethyl-N-hydroxy-2′-oxo-1,3-dihydrospiro[indene-2,3′-pyrrolidine]-5-carboxamide] | < 7.30
5 | CCN1CC[C@]2(Cc3ccc(C(=O)NO)cc3C2)C1=O [Compound I-5, (R)-1′-ethyl-N-hydroxy-2′-oxo-1,3-dihydrospiro[indene-2,3′-pyrrolidine]-5-carboxamide] | 7.30 to 8.00
6 | O=C(NO)c1ccc2c(c1)C[C@]1(CCN(c3ccncc3)C1=O)C2 [Compound I-22, (S)—N-hydroxy-2′-oxo-1′-(pyridin-4-yl)-1,3-dihydrospiro[indene-2,3′-pyrrolidine]-5-carboxamide] | 7.30 to 8.00
7 | O=C(NO)c1ccc2c(c1)C[C@]1(CCN(c3cccnc3)C1=O)C2 [Compound I-18, (S)—N-hydroxy-2′-oxo-1′-(pyridin-3-yl)-1,3-dihydrospiro[indene-2,3′-pyrrolidine]-5-carboxamide] | 7.30 to 8.00
8 | O=C(NO)c1ccc2c(c1)C[C@@]1(CCN(c3ccc(F)cc3)C1=O)C2 [Compound I-15, (R)-1′-(4-fluorophenyl)-N-hydroxy-2′-oxo-1,3-dihydrospiro[indene-2,3′-pyrrolidine]-5-carboxamide] | 7.30 to 8.00
9 | CN1CC[C@]2(Cc3ccc(C(=O)NO)cc3C2)C1 [Compound I-24, (R)—N-hydroxy-1′-methyl-1,3-dihydrospiro[indene-2,3′-pyrrolidine]-5-carboxamide] | 7.30 to 8.00
10 | CC(=O)N1CC[C@@]2(Cc3ccc(C(=O)NO)cc3C2)C1 [Compound I-29, (S)-1′-acetyl-N-hydroxy-1,3-dihydrospiro[indene-2,3′-pyrrolidine]-5-carboxamide] | 7.30 to 8.00
11 | O=C(NO)c1ccc2c(c1)C[C@]1(CCN(c3ccccc3)C1=O)C2 [Compound I-14, (S)—N-hydroxy-2′-oxo-1′-phenyl-1,3-dihydrospiro[indene-2,3′-pyrrolidine]-5-carboxamide] | 7.30 to 8.00
12 | O=C(NO)c1ccc2c(c1)C[C@]1(CCN(C(=O)c3ccccc3)C1)C2 [Compound I-31, (S)-1′-benzoyl-N-hydroxy-1,3-dihydrospiro[indene-2,3′-pyrrolidine]-5-carboxamide] | ≥ 8.00
13 | O=C(NO)c1ccc2c(c1)C[C@@]1(CCN(c3ccncc3)C1=O)C2 [Compound I-21, (R)—N-hydroxy-2′-oxo-1′-(pyridin-4-yl)-1,3-dihydrospiro[indene-2,3′-pyrrolidine]-5-carboxamide] | 7.30 to 8.00
14 | O=C(NO)c1ccc2c(c1)C[C@]1(CCN(Cc3ccccc3)C1=O)C2 [Compound I-12, (S)-1′-benzyl-N-hydroxy-2′-oxo-1,3-dihydrospiro[indene-2,3′-pyrrolidine]-5-carboxamide] | 7.30 to 8.00
15 | O=C(NO)c1ccc2c(c1)C[C@@]1(CCN(c3ccccn3)C1=O)C2 [Compound I-19, (R)—N-hydroxy-2′-oxo-1′-(pyridin-2-yl)-1,3-dihydrospiro[indene-2,3′-pyrrolidine]-5-carboxamide] | 7.30 to 8.00
16 | O=C(NO)c1ccc2c(c1)C[C@@]1(CCN(Cc3cccnc3)C1=O)C2 [Compound I-23, (R)—N-hydroxy-2′-oxo-1′-(pyridin-3-ylmethyl)-1,3-dihydrospiro[indene-2,3′-pyrrolidine]-5-carboxamide] | 7.30 to 8.00
17 | O=C(NO)c1ccc2c(c1)C[C@]1(CCCN(c3ccccc3)C1=O)C2 [Compound I-37, (S)—N-hydroxy-2′-oxo-1′-phenyl-1,3-dihydrospiro[indene-2,3′-piperidine]-5-carboxamide] | 7.30 to 8.00
18 | CN1CC[C@]2(Cc3ccc(C(=O)NO)cc3C2)C1=O [Compound I-1, (R)—N-hydroxy-1′-methyl-2′-oxo-1,3-dihydrospiro[indene-2,3′-pyrrolidine]-5-carboxamide] | 7.30 to 8.00
19 | Cc1ccccc1CN1CC[C@@]2(Cc3ccc(C(=O)NO)cc3C2)C1=O [Compound I-10, (S)—N-hydroxy-1′-(2-methylbenzyl)-2′-oxo-1,3-dihydrospiro[indene-2,3′-pyrrolidine]-5-carboxamide] | 7.30 to 8.00
20 | O=C(NO)c1ccc2c(c1)C[C@@]1(CCN(Cc3ccccc3)C1=O)C2 [Compound I-11, (R)-1′-benzyl-N-hydroxy-2′-oxo-1,3-dihydrospiro[indene-2,3′-pyrrolidine]-5-carboxamide] | ≥ 8.00
21 | O=C(NO)c1ccc2c(c1)C[C@@]1(CCN(c3ccccc3)C1=O)C2 [Compound I-13, (R)—N-hydroxy-2′-oxo-1′-phenyl-1,3-dihydrospiro[indene-2,3′-pyrrolidine]-5-carboxamide] | 7.30 to 8.00
22 | Cc1ccccc1CN1CC[C@]2(Cc3ccc(C(=O)NO)cc3C2)C1=O [Compound I-9, (R)—N-hydroxy-1′-(2-methylbenzyl)-2′-oxo-1,3-dihydrospiro[indene-2,3′-pyrrolidine]-5-carboxamide] | 7.30 to 8.00
23 | O=C(NO)c1ccc2c(c1)C[C@]1(CCN(c3ccccn3)C1=O)C2 [Compound I-20, (S)—N-hydroxy-2′-oxo-1′-(pyridin-2-yl)-1,3-dihydrospiro[indene-2,3′-pyrrolidine]-5-carboxamide] | 7.30 to 8.00
24 | CC(C)N1CC[C@]2(Cc3ccc(C(=O)NO)cc3C2)C1=O [Compound I-3, (R)—N-hydroxy-1′-isopropyl-2′-oxo-1,3-dihydrospiro[indene-2,3′-pyrrolidine]-5-carboxamide] | 7.30 to 8.00
25 | O=C(NO)c1ccc2c(c1)C[C@]1(CCN(Cc3ccccc3)C1)C2 [Compound I-27, (S)-1′-benzyl-N-hydroxy-1,3-dihydrospiro[indene-2,3′-pyrrolidine]-5-carboxamide] | 7.30 to 8.00
26 | O=C(NO)c1ccc2c(c1)C[C@@]1(CCN(Cc3ccccc3)C1)C2 [Compound I-26, (R)-1′-benzyl-N-hydroxy-1,3-dihydrospiro[indene-2,3′-pyrrolidine]-5-carboxamide] | 7.30 to 8.00
27 | CN1CCC[C@]2(Cc3ccc(C(=O)NO)cc3C2)C1=O [Compound I-32, (R)—N-hydroxy-1′-methyl-2′-oxo-1,3-dihydrospiro[indene-2,3′-piperidine]-5-carboxamide] | 7.30 to 8.00
28 | CC(C)CN1CC[C@@]2(Cc3ccc(C(=O)NO)cc3C2)C1=O [Compound I-8, (S)—N-hydroxy-1′-isobutyl-2′-oxo-1,3-dihydrospiro[indene-2,3′-pyrrolidine]-5-carboxamide] | 7.30 to 8.00
